Measured values: ChEMBL document CHEMBL3885861, “Open TG-GATES”

Organism: Rattus norvegicus
Assay: Open TG-GATES - Regimen: Daily Repeat
Format: toxicity, organism-based, Sprague-Dawley
Set-up: regimen Daily Repeat, gender Male, age 6 weeks
Conditions: in vivo, po, route gavage; for TP / gamma-GTP / ALP / ALT / AST / BUN / CRE / DBIL / GLC / IP / K / LDH / Na / PL / RALB / TBIL / TC / TG: tissue Plasma; for APTT / Bas / Eos / Fbg / Ht / Lym / MCH / MCHC / MCV / Mono / Neu / Plat / RBC / Ret / WBC: tissue Blood
[1] = 45 mg/kg, […], dose level Low, time 28 day
[2] = 150 mg/kg, 72 h, dose level Middle, time 3 day
[3] = 150 mg/kg, […], dose level Middle, time 7 day
[4] = 150 mg/kg, […], dose level Middle, time 14 day
[5] = 150 mg/kg, […], dose level Middle, time 28 day
[6] = 450 mg/kg, 72 h, dose level High, time 3 day
[7] = 450 mg/kg, […], dose level High, time 7 day
[8] = 450 mg/kg, […], dose level High, time 14 day
[9] = 450 mg/kg, […], dose level High, time 28 day

## CCCC(CCC)C(=O)O [VALPROIC ACID]
[1]
  TP: 5.9 g/dL
  gamma-GTP: 0.6 IU/L
[2]
  TERMINAL_BW: 227 g
  APTT: 19.8 s
  Bas: 0%
  Eos: 1%
  Fbg: 219.8 mg/dL
  Ht: 38.6%
  Lym: 78%
  MCH: 21.6 pg
  MCHC: 34.3%
  MCV: 62.9 fL
  Mono: 3.8%
  Neu: 17%
  Plat: 140.1 x10_4/uL
  RBC: 614.2 x10_4/ul
  Ret: 6.8%
  WBC: 106.9 x10_2/uL
  ALP: 920.6 IU/L
  ALT: 40 IU/L
  AST: 73.6 IU/L
  BUN: 16.2 mg/dL
  CRE: 0.4 mg/dL
  DBIL: 0.074 mg/dL
  GLC: 211.4 mg/dL
  IP: 7.9 mg/dL
  K: 3.8 meq/L
  LDH: 179.2 IU/L
  Na: 141.4 meq/L
  PL: 148.6 mg/dL
  RALB: 3.3 g/dL
  TBIL: 0.1 mg/dL
  TC: 76.8 mg/dL
  TG: 73 mg/dL
  TP: 5.4 g/dL
  gamma-GTP: 1.2 IU/L
[3]
  TERMINAL_BW: 255.5 g
  APTT: 19.5 s
  Bas: 0%
  Eos: 1.2%
  Fbg: 219.6 mg/dL
  Ht: 40.1%
  Lym: 81%
  MCH: 20.8 pg
  MCHC: 33.9%
  MCV: 61.3 fL
  Mono: 3.4%
  Plat: 129.5 x10_4/uL
  RBC: 655 x10_4/ul
  Ret: 5.7%
  WBC: 106 x10_2/uL
  ALP: 816 IU/L
  ALT: 29.8 IU/L
  AST: 59.2 IU/L
  BUN: 15.4 mg/dL
  CRE: 0.4 mg/dL
  DBIL: 0.078 mg/dL
  GLC: 220.6 mg/dL
  IP: 7.2 mg/dL
  K: 3.7 meq/L
  LDH: 194.4 IU/L
  Na: 140.6 meq/L
  RALB: 3.4 g/dL
  TBIL: 0.1 mg/dL
  TC: 69.4 mg/dL
  TG: 109.4 mg/dL
  TP: 5.6 g/dL
  gamma-GTP: 1.4 IU/L
[4]
  TERMINAL_BW: 311.1 g
  APTT: 18.7 s
  Bas: 0%
  Eos: 1%
  Fbg: 216.8 mg/dL
  Ht: 42.3%
  Lym: 83.2%
  MCH: 20.6 pg
  MCHC: 35%
  MCV: 58.9 fL
  Mono: 2.6%
  Neu: 13.2%
  Plat: 108.8 x10_4/uL
  RBC: 720 x10_4/ul
  Ret: 4%
  WBC: 93.8 x10_2/uL
  ALP: 877.8 IU/L
  ALT: 34.4 IU/L
  AST: 64.2 IU/L
  BUN: 16.6 mg/dL
  CRE: 0.4 mg/dL
  DBIL: 0.082 mg/dL
  GLC: 218.2 mg/dL
  IP: 7.9 mg/dL
  K: 3.8 meq/L
  LDH: 176.8 IU/L
  Na: 140.4 meq/L
  PL: 153.2 mg/dL
  RALB: 3.4 g/dL
  TBIL: 0.1 mg/dL
  TC: 69.4 mg/dL
  TG: 123 mg/dL
  TP: 5.8 g/dL
  gamma-GTP: 0.8 IU/L
[5]
  TERMINAL_BW: 400.1 g
  APTT: 19.7 s
  Bas: 0%
  Eos: 1.4%
  Fbg: 214.2 mg/dL
  Ht: 42.1%
  Lym: 83.2%
  MCH: 19 pg
  MCHC: 35.2%
  MCV: 53.9 fL
  Mono: 2.6%
  Neu: 12.4%
  Plat: 116.1 x10_4/uL
  RBC: 781.6 x10_4/ul
  Ret: 2.3%
  WBC: 89.2 x10_2/uL
  ALP: 729.4 IU/L
  ALT: 35 IU/L
  AST: 65 IU/L
  BUN: 17.6 mg/dL
  CRE: 0.4 mg/dL
  DBIL: 0.1 mg/dL
  GLC: 208.2 mg/dL
  IP: 6.7 mg/dL
  K: 3.9 meq/L
  LDH: 178.4 IU/L
  Na: 141 meq/L
  PL: 142.4 mg/dL
  RALB: 3.5 g/dL
  TBIL: 0.2 mg/dL
  TC: 66.6 mg/dL
  TG: 130.4 mg/dL
  TP: 6.1 g/dL
  gamma-GTP: 0.6 IU/L
[6]
  TERMINAL_BW: 225.2 g
  APTT: 19.4 s
  Bas: 0%
  Eos: 1%
  Fbg: 213.4 mg/dL
  Ht: 38.5%
  Lym: 79.2%
  MCH: 21.5 pg
  MCHC: 34.4%
  MCV: 62.4 fL
  Mono: 2.8%
  Neu: 16.4%
  Plat: 131.5 x10_4/uL
  RBC: 618.2 x10_4/ul
  Ret: 5.1%
  WBC: 85.9 x10_2/uL
  ALP: 765 IU/L
  ALT: 31.2 IU/L
  AST: 64.8 IU/L
  BUN: 14.6 mg/dL
  CRE: 0.4 mg/dL
  DBIL: 0.07 mg/dL
  GLC: 201.8 mg/dL
  IP: 7.9 mg/dL
  K: 3.7 meq/L
  LDH: 197.2 IU/L
  Na: 141.8 meq/L
  PL: 136 mg/dL
  RALB: 3.4 g/dL
  TBIL: 0.1 mg/dL
  TC: 67.2 mg/dL
  TG: 64.8 mg/dL
  TP: 5.5 g/dL
  gamma-GTP: 1.2 IU/L
[7]
  TERMINAL_BW: 257.7 g
  APTT: 19.5 s
  Bas: 0%
  Eos: 0.8%
  Fbg: 209.8 mg/dL
  Ht: 39.4%
  Lym: 78.8%
  MCH: 21.1 pg
  MCHC: 34.2%
  MCV: 61.7 fL
  Mono: 4.2%
  Plat: 114.2 x10_4/uL
  RBC: 639.6 x10_4/ul
  Ret: 6%
  WBC: 111.1 x10_2/uL
  ALP: 901.6 IU/L
  ALT: 35.2 IU/L
  AST: 65.6 IU/L
  BUN: 16.2 mg/dL
  CRE: 0.4 mg/dL
  DBIL: 0.082 mg/dL
  GLC: 217.6 mg/dL
  IP: 7.5 mg/dL
  K: 3.9 meq/L
  LDH: 204.2 IU/L
  Na: 139.4 meq/L
  PL: 132.8 mg/dL
  RALB: 3.3 g/dL
  TBIL: 0.1 mg/dL
  TC: 62 mg/dL
  TG: 94.4 mg/dL
  TP: 5.6 g/dL
  gamma-GTP: 1.4 IU/L
[8]
  TERMINAL_BW: 310.7 g
  APTT: 18.5 s
  Bas: 0%
  Eos: 0.8%
  Fbg: 226.2 mg/dL
  Ht: 41.6%
  Lym: 84%
  MCH: 20.2 pg
  MCHC: 34.6%
  MCV: 58.4 fL
  Mono: 3.6%
  Neu: 10.6%
  Plat: 116.8 x10_4/uL
  RBC: 712.6 x10_4/ul
  Ret: 4.7%
  WBC: 84.9 x10_2/uL
  ALP: 786 IU/L
  ALT: 33 IU/L
  AST: 64.6 IU/L
  BUN: 17 mg/dL
  CRE: 0.4 mg/dL
  DBIL: 0.086 mg/dL
  GLC: 207.6 mg/dL
  IP: 6.9 mg/dL
  K: 3.7 meq/L
  LDH: 189.2 IU/L
  Na: 140.2 meq/L
  PL: 140.4 mg/dL
  RALB: 3.4 g/dL
  TBIL: 0.1 mg/dL
  TC: 65 mg/dL
  TG: 101 mg/dL
  TP: 5.7 g/dL
  gamma-GTP: 1.6 IU/L
[9]
  TERMINAL_BW: 375.7 g
  APTT: 20.4 s
  Bas: 0%
  Eos: 1%
  Fbg: 201 mg/dL
  Ht: 41.7%
  Lym: 85%
  MCH: 19.1 pg
  MCHC: 34.7%
  MCV: 55.1 fL
  Mono: 3%
  Neu: 10%
  Plat: 101.4 x10_4/uL
  RBC: 757 x10_4/ul
  Ret: 2.4%
  WBC: 78.5 x10_2/uL
  ALP: 583.2 IU/L
  ALT: 29.2 IU/L
  AST: 62.8 IU/L
  BUN: 17.8 mg/dL
  CRE: 0.5 mg/dL
  DBIL: 0.078 mg/dL
  GLC: 198.8 mg/dL
  IP: 5.9 mg/dL
  K: 3.9 meq/L
  LDH: 209.8 IU/L
  Na: 140.4 meq/L
  PL: 126.6 mg/dL
  RALB: 3.4 g/dL
  TBIL: 0.1 mg/dL
  TC: 55.4 mg/dL
  TG: 98.4 mg/dL
  TP: 5.7 g/dL
  gamma-GTP: 1 IU/L
